Measurements reported in PMC4343023, “Selectivity of odorant-binding proteins from the southern house mosquito tested against physiologically relevant ligands” (Frontiers in Physiology, 2015).
Where two headings read alike, the source gives them in different places.

Tests used:
AfunOBP1 = test system: AfunOBP1; set-up: method as in Xu et al., 2010; conditions: panel of EAG-active compounds; ref Xu et al., 2010; cited from earlier work
AgamOBP1 = test system: AgamOBP1; set-up: method as in Biessmann et al., 2010; conditions: ref Biessmann et al., 2010; cited from earlier work
CquiOBP5 = CquiOBP5 (Culex quinquefasciatus, UniProt C7BDZ9); experiment: biochemical; assay type: binding; conditions: for Int (fluorescence emission): residual NPN fluorescence, normalized to 100 prior to ligand, screen at 2–20 μM ligand; for binding to CquiOBP5 (in words): in vitro, NPN displacement
Chain of CquiOBP5 (C7BDZ9 entry or part of it): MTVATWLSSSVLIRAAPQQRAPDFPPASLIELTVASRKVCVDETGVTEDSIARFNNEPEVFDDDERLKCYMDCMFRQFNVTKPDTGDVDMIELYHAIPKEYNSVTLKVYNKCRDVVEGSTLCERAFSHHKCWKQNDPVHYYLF
Description: (§1) Binding affinity (Ban et al., [2002]) was tested with a panel of 34 compounds, including attractants, a mosquito oviposition pheromone, repellents, terpenoids and other putative mosquito attractants or repellents. Unless otherwise specified, they were purchased from Sigma-Aldrich/Fluka/Acros (St. Louis, MO). Repellents: DEET (N,N-diethyl-3-methylbenzamide), PMD (p-mentan-3,8-diol) (Bedoukian Research, Inc.), picaridin (butan-2-yl 2-(2-hydroxyethyl)piperidine-1-carboxylate), IR3535 (ethyl 3-[acetyl(butyl)amino]propanoate) (gifts from Dr. Kamal Chauhan, USDA, ARS, Beltsville), (±)-citronellal, and ethyl 2-phenylacetate. Oviposition attractants: (5R,6S)-6-acetoxy-5-hexadecanolide, MOP (Bedoukian Research, Inc.), skatole, indole, 4-methylphenol, and 4-ethylphenol. Human derived compounds: nonanal, 6-methyl-5-hepten-2-one (sulcatone). Terpenoids and other putative attractants/repellents: linalool, linalool oxide, eucalyptol, camphor, fenchone, thujone, geranyl acetate, eugenol, (Z)-3-hexenyl acetate, 1-octen-3-ol, 1-octyn-3-ol, 3-octanol, 1-hexanol, methylcyclohexanol, methyl salicylate, cyclohexanone, acetophenone, benzaldehyde, 3,5-dimethoxybenzene, 1,2-dimethoxybenzene, and 2-phenylethanol.
(§2) Fluorescence spectra were recorded in a right angle configuration on a spectrofluorimeter (RF-5301, Shimadzu, Kyoto, Japan) at room temperature using a 1 cm light path fluorimeter quartz cuvette. Slit widths of 10 nm were selected for both excitation and emission. N-phenyl-1-naphthylamine (NPN, or 1-NPN) (Ban et al., [2002]) was dissolved in methanol to yield a 1 mM stock solution. The binding affinity for NPN was determined by adding aliquots of NPN into a 10 μg/ml (microgram) protein sample. NPN was excited at 337 nm and emission spectra were recorded at high speed scanning between 350 and 500 nm. All ligands used in competition experiments were dissolved in spectrophotometric grade methanol. Binding data were collected in three independent measurements. Bound ligand was evaluated from fluorescence intensity assuming that the protein was 100% active, with a stoichiometry of 1:1 (protein: ligand) at saturation. The KNPN values were estimated using Prism 5 (GraphPad Software, Inc., La Jolla, CA) by non-linear regression for a unique site of binding. The curves were linearized using Scatchard plots. Dissociation constants of the competitors were calculated according to Campanacci et al. ([2001]) from the corresponding IC50 values in the equation: Kdiss = [IC50]/1+[NPN]/KNPN, where [NPN] is the free concentration of NPN and KNPN is the dissociation constant of the complex protein/NPN.

CquiOBP1 [1] = biological target: T1, CquiOBP1 (Culex quinquefasciatus, UniProt Q8T6I2); experiment: biochemical; assay type: binding; conditions: for Int (fluorescence emission): residual NPN fluorescence, normalized to 100 prior to ligand, screen at 2–20 μM ligand; for binding to CquiOBP1 (in words): in vitro, NPN displacement
T1 sequence (Q8T6I2 entry or part of it): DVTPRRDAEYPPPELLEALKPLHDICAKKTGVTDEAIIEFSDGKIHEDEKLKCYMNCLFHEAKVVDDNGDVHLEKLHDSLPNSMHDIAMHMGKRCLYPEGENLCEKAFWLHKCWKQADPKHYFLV
Description: as §1, §2

CquiOBP2 = CquiOBP2 (Culex quinquefasciatus, UniProt C7BDZ6); experiment: biochemical; assay type: binding; conditions: for Int (fluorescence emission): residual NPN fluorescence, normalized to 100 prior to ligand, screen at 2–20 μM ligand; for binding to CquiOBP2 (in words): in vitro, NPN displacement
Chain of CquiOBP2 (C7BDZ6 entry or part of it): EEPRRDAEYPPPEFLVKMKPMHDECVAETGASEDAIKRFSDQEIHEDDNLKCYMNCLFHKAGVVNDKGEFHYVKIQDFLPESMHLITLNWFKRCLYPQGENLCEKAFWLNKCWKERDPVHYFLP
Description: as §1, §2

CquiOBP1 [2] = biological target: T1, CquiOBP1; experiment: pH-dependent binding assay; conditions: CquiOBP1-NPN quenching by ligand, pH 4.5 to 8, 4PL fit
Description: To investigate the effects of pH on CquiOBP1–ligand complexes, fluorescence binding assay was measured between CquiOBP1 and three best ligands at different pH values. Buffer were prepared into two different ways: starting from 1M phosphate buffer, pH 4, pH was increased and adjusted by adding sodium hydroxide. Then protein was added to make a solution at each tested pH from 4.5 to 8. Experiments were repeated starting from pH 8 and lowering the pH by adding hydrochloric acid. Each tested solution had 200 mM buffer and 10 μg/ml (microgram) of CquiOBP1. As there were no significant differences in fluorescence data generated at a certain pH regardless of having the pH raised by adding NaOH or lowered by addition of HCl, data were pooled for subsequent analysis.
The pH of the midpoint transitions was obtained by non-linear fitting, sigmoidal with an equation for four-parameter logistic (4PL) of curve segments between the lowest and highest decrease in fluorescence (the rising part of each curve). The pH values calculated for the midpoint transitions with MOP, picaridin, and nonanal were 6.3, 5.8, and 5.5, respectively. Although the pH at the surface of dendritic membrane is not known, it is predicted that too low midpoint transition may lead to odorants being trapped in OBPs and not being properly delivered. In short, the acidity at the surface of the membrane may not be enough to trigger release of a ligand with too low midpoint transition pH. By considering only the dissociation constants obtained by in vitro binding assays (Table 1), one could reasonably argue that CquiOBP1 is involved in reception of nonanal. […] Next, we compared how these ligands would interact with CquiOBP1.

[3] = test system: Mosquitoes with reduced transcripts of CquiOBP1; set-up: method as in Pelletier et al., 2010; conditions: ref Pelletier et al., 2010; cited from earlier work
AaegOBP1 = test system: AaegOBP1; set-up: method as in Leal and Leal, 2015; conditions: ref Leal and Leal, 2015; cited from earlier work
[4] = CquiOBP5, NPN displacement titration, read-out: IC50
[5] = CquiOBP5, calculated from IC50 of NPN displacement, read-out: Kd
[6] = CquiOBP1, NPN displacement titration, read-out: IC50
[7] = CquiOBP1, calculated from IC50 of NPN displacement, read-out: Kd
[8] = CquiOBP2, NPN displacement titration, read-out: IC50
[9] = CquiOBP2, calculated from IC50 of NPN displacement, read-out: Kd

Row | Compound | IC50 (CquiOBP5; [4]) [µM] | Kd (CquiOBP5; [5]) [µM] | Int (fluorescence emission) (CquiOBP5; CquiOBP5) | IC50 (CquiOBP1 [1]; [6]) [µM] | Kd (CquiOBP1 [1]; [7]) [µM] | Int (fluorescence emission) (CquiOBP1 [1]; CquiOBP1) | IC50 (CquiOBP2; [8]) [µM] | Kd (CquiOBP2; [9]) [µM] | Int (fluorescence emission) (CquiOBP2; CquiOBP2) | also measured
1 | CCCCCCCCCC(C)=O [2-undecanone] | – | – | – | – | – | – | – | – | – | binding to AfunOBP1 (AfunOBP1): best ligand
2 | c1ccc2[nH]ccc2c1 [Indole, indole] | > 10 | > 7 | 80 | > 10 | > 6.3 | 86 | > 10 | > 2.5 | 87 | binding to AgamOBP1 (AgamOBP1): selectively bind
3 | CCCCCCCCCC[C@H](OC(C)=O)[C@H]1CCCC(=O)O1 [MOP, (5R,6S)-6-acetoxy-5-hexadecanolide] | 10.3 | 7.2 | 52 | 8.4 | 5.3 | 48 | > 10 | > 2.5 | 86 | pH of the midpoint transition (CquiOBP1 [2]): 6.3; EAG responses, knockdown vs wild type [3]: significant lower; binding to AaegOBP1 (AaegOBP1): bound; binding to CquiOBP5 (in words) (CquiOBP5): bound; binding to CquiOBP1 (in words) (CquiOBP1 [1]): bound; binding to CquiOBP2 (in words) (CquiOBP2): cannot displace NPN
4 | COC(=O)c1ccccc1O [Methyl salicylate, methyl salicylate] | > 10 | > 7 | 89 | > 10 | > 6.3 | 87 | > 10 | > 2.5 | 72 | –
5 | c1ccc(Nc2cccc3ccccc23)cc1 [NPN, N-phenyl-1-naphthylamine] | – | – | – | – | – | – | – | – | – | Kd (CquiOBP5; direct titration of CquiOBP5 (10 μg/ml) with NPN, read-out: Kd for NPN): 2.3 ± 0.19 µM; Kd (CquiOBP1 [1]; direct titration of CquiOBP1 (10 μg/ml) with NPN, read-out: Kd for NPN): 1.71 ± 0.13 µM; Kd (CquiOBP2; direct titration of CquiOBP2 (10 μg/ml) with NPN, read-out: Kd for NPN): 0.5 ± 0.02 µM
6 | CCCCCCCCC=O [Nonanal, nonanal] | 8.3 | 5.8 | 46.5 | 10.5 | 6.6 | 51.4 | > 10 | > 2.5 | 87 | pH of the midpoint transition (CquiOBP1 [2]): 5.5; EAG responses, knockdown vs wild type [3]: not significantly different
7 | CC1CCC(C(C)(C)O)C(O)C1 (centres unmarked) [PMD, p-mentan-3,8-diol] | 13.8 | 9.6 | 61 | > 10 | > 6.3 | 80 | 5.3 | 1.3 | 35 | –
8 | CCC(C)OC(=O)N1CCCCC1CCO (centres unmarked) [Picaridin, butan-2-yl 2-(2-hydroxyethyl)piperidine-1-carboxylate] | – | – | 45 | – | – | 51 | – | – | 77 | pH of the midpoint transition (CquiOBP1 [2]): 5.8; IC50 (CquiOBP5): 7.9 µM; Kd (CquiOBP5): 5.6 µM; IC50 (CquiOBP1 [1]): 10.2 µM; Kd (CquiOBP1 [1]): 6.4 µM; IC50 (CquiOBP2): > 10 µM; Kd (CquiOBP2): > 2.5 µM
9 | Cc1c[nH]c2ccccc12 [Skatole, skatole] | 14.4 | 10.1 | 62 | > 10 | > 6.3 | 75 | 5.6 | 1.4 | 31 | binding to CquiOBP5 (in words) (CquiOBP5): bind; binding to CquiOBP1 (in words) (CquiOBP1 [1]): does not bind; binding to CquiOBP2 (in words) (CquiOBP2): bind
10 | CC(=O)CCC=C(C)C [Sulcatone, 6-methyl-5-hepten-2-one] | – | – | 66 | – | – | 87 | – | – | 84 | IC50 (CquiOBP5): > 10 µM; Kd (CquiOBP5): > 7 µM; IC50 (CquiOBP1 [1]): > 10 µM; Kd (CquiOBP1 [1]): > 6.3 µM; IC50 (CquiOBP2): > 10 µM; Kd (CquiOBP2): > 2.5 µM
11 | CC(C)[C@]12CC(=O)[C@H](C)[C@H]1C2 [Thujone, thujone] | – | – | 90 | – | – | 96 | – | – | 87 | IC50 (CquiOBP5): > 10 µM; Kd (CquiOBP5): > 7 µM; IC50 (CquiOBP1 [1]): > 10 µM; Kd (CquiOBP1 [1]): > 6.3 µM; IC50 (CquiOBP2): > 10 µM; Kd (CquiOBP2): > 2.5 µM
12 | (±)-citronellal | > 10 | > 7 | 90 | > 10 | > 6.3 | 65 | > 10 | > 2.5 | 88 | –
